{"source": "patent US20250027966A1", "about": "“A MICROFLUIDIC DEVICE TO DISPENSE A METABOLIC INDICATOR” (Hewlett-Packard Development Company, L.P., priority 2021, published 2025)", "test_system": "E. coli", "assay": "Resazurin fluorescence assay of E. coli mixed with ampicillin", "format": "cell-based", "settings": "for fluorescence: 583 nm; for increase in fluorescence signal compared to resazurin alone: 4 hr incubation", "text": "In some examples, the metabolic indicator includes a fluorogenic compound. A non-limiting example of a fluorogenic compound that may be used as a metabolic indicator includes resazurin which is transformed to resorufin when mixed with living cells, such as with bacteria. […] Resorufin is fluorescent, which allows for monitoring the reaction. For example, resorufin is excited at around 540 nanometers (nm) and emits around 590 nm. Living cells, such as bacteria, may be mixed with resazurin for around one to four hours. For example, after incubation and to overcome the background signal, around 7×10^6 colony forming unit per milliliter (cfu/mL) of Escherichia coli may be present.\nFIG. 2C illustrates the example apparatus 200 of FIG. 2A while the imaging device is capturing images of the substrate, in accordance with the present disclosure. As described with regards to FIG. 2B, the imaging device 215 may capture images at any point in time, and/or once a statiscially significant signal is detected. Also, as described with regards to FIG. 2A, resazurin reduction results in an increase in fluorescence. Accordingly, as bacterial concentration increases over time, more resazurin reduction results and the result is an increase in fluorescence. Antibiotic combinations that disrupt bacterial growth may therefore have less fluorescence than those combinations which have no effect. […] This conclusion may be obtained, because region 219-4, region 219-3, and region 219-2 each have a greater fluorescence level as compared to region 219-1, which is the result of more resazurin reduction by living cells (such as bacteria).\nBackground conversion of resazurin to resorufin (in absence of bacteria) can be calibrated out for increased sensitivity and reduction of assay time. Moreover, the minimum inhibitory concentration of the antibiotic (or antibiotic combination) can be measured, because the microfluidic device 211 is capable of dispensing very small volumes of reagents (e.g., antibiotics), as well as precise volumes of reagent combinations. The rate of fluorescence increase can be correlated to bacterial growth rate and thus the inhibition potential of a particular antibiotic can be measured, as illustrated in the graph included in FIG. 2C. This fluorescence readout may be obtained between 3 and 6 hours, and may thus be used for fast determination of combinations of antibiotics for antibiotic treatment.\nAs illustrated in the top portion of FIG. 6, a MIC test strip from Liofilchem® containing a gradient of ampicillin was applied on an agar plate coated with E. coli. The minimum inhibitory concentration of ampicillin was approximately 2 μg/mL. The E. coli was mixed with various concentrations of ampicillin (0 to 8 μg/mL) and resazurin, and the fluorescence was measured at various times. The concentrations of ampicillin used was 0 μg/mL, 0.25 μg/mL, 0.5 μg/mL, 1 μg/mL, 2 μg/mL, and 8 μg/mL. […] For the sample including E. coli and 8 μg/mL of ampicillin, the fluorescence increased from approximately 10,000 a.u. at 30 minutes, to approximately, 35,000 a.u. at 3 hours and 4 hours. For the sample including E. coli and 0 μg/mL of ampicillin, the fluorescence increased from approximately 10,000 a.u. at 30 minutes, to approximately, 50,000 a.u. at 3 hours and 10^5 a.u at 4 hours. For the sample including E. coli and 0.25 μg/mL of ampicillin, the fluorescence increased from approximately 10,000 a.u. at 30 minutes, to approximately 60,000 a.u. at 3 hours, and approximately 80,000 a.u. at 4 hours. For the sample including E. coli and 0.5 μg/mL of ampicillin, the fluorescence increased from approximately 10,000 a.u. at 30 minutes, to approximately 70,000 a.u. at 3 hours, and approximately 80,000 a.u. at 4 hours. For the sample including E. coli and 1 μg/mL of ampicillin, the fluorescence increased from approximately 10,000 a.u. at 30 minutes, to approximately 75,000 a.u. at 3 hours, and approximately 10^5 a.u. at 4 hours. […]"}
{"smiles": "CC1(C)S[C@@H]2[C@H](NC(=O)[C@H](N)c3ccccc3)C(=O)N2[C@H]1C(=O)O", "note": "[ampicillin]", "values": [{"measurement": "fluorescence", "setting": "E. coli + 0.25 μg/mL ampicillin + resazurin, 30 minutes", "value": "approximately 10,000 a.u."}, {"measurement": "fluorescence", "setting": "E. coli + 0.25 μg/mL ampicillin + resazurin, 3 hours", "value": "approximately 60,000 a.u."}, {"measurement": "fluorescence", "setting": "E. coli + 0.25 μg/mL ampicillin + resazurin, 4 hours", "value": "approximately 80,000 a.u."}, {"measurement": "fluorescence", "setting": "E. coli + 0.5 μg/mL ampicillin + resazurin, 30 minutes", "value": "approximately 10,000 a.u."}, {"measurement": "fluorescence", "setting": "E. coli + 0.5 μg/mL ampicillin + resazurin, 3 hours", "value": "approximately 70,000 a.u."}, {"measurement": "fluorescence", "setting": "E. coli + 0.5 μg/mL ampicillin + resazurin, 4 hours", "value": "approximately 80,000 a.u."}, {"measurement": "fluorescence", "setting": "E. coli + 1 μg/mL ampicillin + resazurin, 30 minutes", "value": "approximately 10,000 a.u."}, {"measurement": "fluorescence", "setting": "E. coli + 1 μg/mL ampicillin + resazurin, 3 hours", "value": "approximately 75,000 a.u."}, {"measurement": "fluorescence", "setting": "E. coli + 2 μg/mL ampicillin + resazurin, 30 minutes", "value": "approximately 10,000 a.u."}, {"measurement": "fluorescence", "setting": "E. coli + 2 μg/mL ampicillin + resazurin, 3 hours", "value": "approximately 75,000 a.u."}, {"measurement": "fluorescence", "setting": "E. coli + 8 μg/mL ampicillin + resazurin, 30 minutes", "value": "approximately 10,000 a.u."}, {"measurement": "fluorescence", "setting": "E. coli + 8 μg/mL ampicillin + resazurin, 3 hours", "value": "~35,000 a.u."}, {"measurement": "fluorescence", "setting": "E. coli + 8 μg/mL ampicillin + resazurin, 4 hours", "value": "~35,000 a.u."}, {"measurement": "increase in fluorescence signal compared to resazurin alone", "setting": "[ampicillin]<2 μg/mL", "value": 6, "unit": "×"}, {"measurement": "increase in fluorescence signal compared to resazurin alone", "setting": "ampicillin 8 μg/mL", "value": 2, "unit": "×"}]}
